This series in a line: Evaluation of stability in liver microsome. The following applies: mouse liver microsome, 1 μM, 37° C. for 30 minutes.
For `COCc1ccc(NC(=O)c2c(C#Cc3ccccc3)n(C3(C)CC3)c3ncnc(N)c23)cc1` [Example 162, 4-amino-N-(4-(methoxymethyl)phenyl)-7-(1-methylcyclopropyl)-6-(phenylethynyl)-7H-pyrrolo[2,3-d]pyrimidine-5-carboxamide], the “Remaining (%)” value turned out to be 76%. `COCc1ccc(NC(=O)c2c(C#Cc3ccn(C)n3)n(C3(C)CC3)c3ncnc(N)c23)cc1` [Example 92, 4-amino-N-(4-(methoxymethyl)phenyl)-6-((1-methyl-1H-pyrazol-3-yl)ethynyl)-7-(1-methylcyclopropyl)-7H-pyrrolo[2,3-d]pyrimidine-5-carboxamide]: the “Remaining (%)” value is listed as 67%. Turning to `COCc1ccc(NC(=O)c2c(F)n(C3(C)CC3)c3ncnc(N)c23)cc1` [Example 69, 4-amino-6-fluoro-N-(4-(methoxymethyl)phenyl)-7-(1-methylcyclopropyl)-7H-pyrrolo[2,3-d]pyrimidine-5-carboxamide], the “Remaining (%)” value was found to be 69%. The result for `COCc1ccc(NC(=O)c2c(C#CC3(O)CCCC3)n(C3(C)CC3)c3ncnc(N)c23)cc1` [Example 131, 4-amino-6-((1-hydroxycyclopentyl)ethynyl)-N-(4-(methoxymethyl)phenyl)-7-(1-methylcyclopropyl)-7H-pyrrolo[2,3-d]pyrimidine-5-carboxamide] reads 55%. The result for `COCc1ccc(NC(=O)c2c(C#Cc3cnn(C)c3)n(C3(C)CC3)c3ncnc(N)c23)cc1` [Example 90, 4-amino-N-[4-(methoxymethyl)phenyl]-6-((1-methyl-1H-pyrazol-4-yl)ethynyl)-7-(1-methylcyclopropyl)-7H-pyrrolo[2,3-d]pyrimidine-5-carboxamide] reads 67%.

`COCc1ccc(NC(=O)c2c(OCC(C)(C)OC)n(C3(C)CC3)c3ncnc(N)c23)cc1` [Example 137, 4-amino-6-(2-methoxy-2-methylpropoxy)-N-(4-(methoxymethyl)phenyl)-7-(1-methylcyclopropyl)-7H-pyrrolo[2,3-d]pyrimidine-5-carboxamide]: the “Remaining (%)” value was 53%. As for `COCc1ccc(NC(=O)c2c(OCCN3CCCC3=O)n(C3(C)CC3)c3ncnc(N)c23)cc1` [Example 136, 4-amino-N-(4-(methoxymethyl)phenyl)-7-(1-methylcyclopropyl)-6-(2-(2-oxopyrrolidin-1-yl)ethoxy)-7H-pyrrolo[2,3-d]pyrimidine-5-carboxamide], the “Remaining (%)” value was determined as 78%.

As to `COCc1ccc(NC(=O)c2c(OCC(C)OC)n(C3(C)CC3)c3ncnc(N)c23)cc1` (centres unmarked) [Example 100, 4-amino-N-(4-(methoxymethyl)phenyl)-6-(2-methoxypropoxy)-7-(1-methylcyclopropyl)-7H-pyrrolo[2,3-d]pyrimidine-5-carboxamide], the “Remaining (%)” value is 76%. As to `COCc1ccc(NC(=O)c2c(C#Cc3ccn[nH]3)n(C3(C)CC3)c3ncnc(N)c23)cc1` [Example 129, 6-((1H-pyrazol-5-yl)ethynyl)-4-amino-N-(4-(methoxymethyl)phenyl)-7-(1-methylcyclopropyl)-7H-pyrrolo[2,3-d]pyrimidine-5-carboxamide], the “Remaining (%)” value was 54%. `COCc1ccc(NC(=O)c2c(C#Cc3cnc4[nH]ccc4c3)n(C3(C)CC3)c3ncnc(N)c23)cc1` [Example 128, 6-((1H-pyrrolo[2,3-b]pyridin-5-yl)ethynyl)-4-amino-N-(4-(methoxymethyl)phenyl)-7-(1-methylcyclopropyl)-7H-pyrrolo[2,3-d]pyrimidine-5-carboxamide]: the “Remaining (%)” value came to 82%. To `COCc1ccc(NC(=O)c2c(/C=C/CO)n(C3(C)CC3)c3ncnc(N)c23)cc1` [Example 109, (E)-4-amino-6-(3-hydroxyprop-1-en-1-yl)-N-(4-(methoxymethyl)phenyl)-7-(1-methylcyclopropyl)-7H-pyrrolo[2,3-d]pyrimidine-5-carboxamide] belongs 68%; to `COCc1ccc(NC(=O)c2c(-c3ccc(CO)cc3)n(C3(C)CC3)c3ncnc(N)c23)cc1` [Example 145, 4-amino-6-(4-(hydroxymethyl)phenyl)-N-(4-(methoxymethyl)phenyl)-7-(1-methylcyclopropyl)-7H-pyrrolo[2,3-d]pyrimidine-5-carboxamide], 72%. For `COCc1ccc(NC(=O)c2c(C#CCC3(O)CCC3)n(C3(C)CC3)c3ncnc(N)c23)cc1` [Example 103, 4-amino-6-(3-(1-hydroxycyclobutyl)prop-1-yn-1-yl)-N-(4-(methoxymethyl)phenyl)-7-(1-methylcyclopropyl)-7H-pyrrolo[2,3-d]pyrimidine-5-carboxamide], the “Remaining (%)” value is on record as 60%. To `COCc1ccc(NC(=O)c2c(C#Cc3ccc(OC)cc3)n(C3(C)CC3)c3ncnc(N)c23)cc1` [Example 165, 4-amino-N-(4-(methoxymethyl)phenyl)-6-((4-methoxypheny)ethynyl)-7-(1-methylcyclopropyl)-7H-pyrrolo[2,3-d]pyrimidine-5-carboxamide] belongs 90%; to `COCc1ccc(NC(=O)c2c(C#Cc3cncn3C)n(C3(C)CC3)c3ncnc(N)c23)cc1` [Example 93, 4-amino-N-(4-(methoxymethyl)phenyl)-6-((1-methyl-1H-imidazol-5-yl)ethynyl)-7-(1-methylcyclopropyl)-7H-pyrrolo[2,3-d]pyrimidine-5-carboxamide], 53%; to `COCc1ccc(NC(=O)c2c(C#CCN(C)C)n(C3(C)CC3)c3ncnc(N)c23)cc1` [Example 198, 4-amino-6-(3-(dimethylamino)prop-1-yn-1-yl)-N-(4-(methoxymethyl)phenyl)-7-(1-methylcyclopropyl)-7H-pyrrolo[2,3-d]pyrimidine-5-carboxamide], 57%. On to `COCc1ccc(NC(=O)c2cn(C(C)(C)C(F)F)c3ncnc(N)c23)cc1` [Example 50, 4-amino-7-(1,1-difluoro-2-methylpropan-2-yl)-N-(4-(methoxymethyl)phenyl)-7H-pyrrolo[2,3-d]pyrimidine-5-carboxamide], for which the “Remaining (%)” value was 53%. `COCc1ccc(NC(=O)c2c(-c3cnn(C)c3)n(C3(C)CC3)c3ncnc(N)c23)cc1` [Example 150, 4-amino-N-(4-(methoxymethyl)phenyl)-6-(1-methyl-1H-pyrazol-4-yl)-7-(1-methylcyclopropyl)-7H-pyrrolo[2,3-d]pyrimidine-5-carboxamide]: the “Remaining (%)” value is recorded as 78%.

Regarding `COCc1ccc(NC(=O)c2c(C#Cc3cn(C)nc3C)n(C3(C)CC3)c3ncnc(N)c23)cc1` [Example 181, 4-amino-6-((1,3-dimethyl-1H-pyrazol-4-yl)ethynyl)-N-(4-(methoxymethyl)phenyl)-7-(1-methylcyclopropyl)-7H-pyrrolo[2,3-d]pyrimidine-5-carboxamide], the “Remaining (%)” value was determined as 62%. Turning to `COCc1ccc(NC(=O)c2cn(C3(C4CC4)CC3)c3ncnc(N)c23)cc1` [Example 49, 7-{[1,1-bi(cyclopropane)]-1-yl}-4-amino-N-(4-(methoxymethyl)phenyl)-7H-pyrrolo[2,3-d]pyrimidine-5-carboxamide], the “Remaining (%)” value stood at 67%. For the compound `CCC(O)CC#Cc1c(C(=O)Nc2ccc(COC)cc2)c2c(N)ncnc2n1C1(C)CC1` (centres unmarked) [Example 157, 4-amino-6-(4-hydroxyhex-1-yn-1-yl)-N-(4-(methoxymethyl)phenyl)-7-(1-methylcyclopropyl)-7H-pyrrolo[2,3-d]pyrimidine-5-carboxamide], the “Remaining (%)” value came to 59%. To `COCc1ccc(NC(=O)c2c(C#Cc3c(C)noc3C)n(C3(C)CC3)c3ncnc(N)c23)cc1` [Example 184, 4-amino-6-((3,5-dimethylisoxazol-4-yl)ethynyl)-N-(4-(methoxymethyl)phenyl)-7-(1-methylcyclopropyl)-7H-pyrrolo[2,3-d]pyrimidine-5-carboxamide] belongs 58%; to `COCc1ccc(NC(=O)c2c(Cl)n(C3(C)CC3)c3ncnc(N)c23)cc1` [Example 56, 4-amino-6-chloro-N-[4-(methoxymethyl)phenyl]-7-(1-methylcyclopropyl)-7H-pyrrolo[2,3-d]pyrimidine-5-carboxamide], 62%. `COCc1ccc(NC(=O)c2c(C#CC(O)C3CC3)n(C3(C)CC3)c3ncnc(N)c23)cc1` (centres unmarked) [Example 104, 4-amino-6-(3-cyclopropyl-3-hydroxyprop-1-yn-1-yl)-N-(4-(methoxymethyl)phenyl)-7-(1-methylcyclopropyl)-7H-pyrrolo[2,3-d]pyrimidine-5-carboxamide]: the “Remaining (%)” value is recorded as 52%.

As for `COCc1ccc(NC(=O)c2c(OCC3CCOC3)n(C3(C)CC3)c3ncnc(N)c23)cc1` (centres unmarked) [Example 101, 4-amino-N-(4-(methoxymethyl)phenyl)-7-(1-methylcyclopropyl)-6-((tetrahydrofuran-3-yl)methoxy)-7H-pyrrolo[2,3-d]pyrimidine-5-carboxamide], the “Remaining (%)” value was 68%. As for `CCn1nccc1C#Cc1c(C(=O)Nc2ccc(COC)cc2)c2c(N)ncnc2n1C1(C)CC1` [Example 114, 4-amino-6-((1-ethyl-1H-pyrazol-5-yl)ethynyl)-N-(4-(methoxymethyl)phenyl)-7-(1-methylcyclopropyl)-7H-pyrrolo[2,3-d]pyrimidine-5-carboxamide], the “Remaining (%)” value turned out to be 55%.

On to `COCc1ccc(NC(=O)c2c(C#CCC(C)(C)O)n(C3(C)CC3)c3ncnc(N)c23)cc1` [Example 86, 4-amino-6-(4-hydroxy-4-methylpent-1-yn-1-yl)-N-[4-(methoxymethyl)phenyl]-7-(1-methylcyclopropyl)-7H-pyrrolo[2,3-d]pyrimidine-5-carboxamide], for which the “Remaining (%)” value was 66%. The result for `C=Cc1c(C(=O)Nc2ccc(COC)cc2)c2c(N)ncnc2n1C1(C)CC1` [Example 65, 4-amino-N-(4-(methoxymethyl)phenyl)-7-(1-methylcyclopropyl)-6-vinyl-7H-pyrrolo[2,3-d]pyrimidine-5-carboxamide] reads 79%; that for `COCc1ccc(NC(=O)c2c(C#Cc3cnn(C(C)C)c3)n(C3(C)CC3)c3ncnc(N)c23)cc1` [Example 144, 4-amino-6-((1-isopropyl-1H-pyrazol-4-yl)ethynyl)-N-(4-(methoxymethyl)phenyl)-7-(1-methylcyclopropyl)-7H-pyrrolo[2,3-d]pyrimidine-5-carboxamide], 79%.

Source of the values: US11046696B2, “Fused pyrimidine compound or salt thereof” (TAIHO PHARMACEUTICAL CO., LTD., priority 2016, dated 2021).
